Patent publication EP4722219A1 (Gan & Lee Pharmaceuticals Co., Ltd., priority 2023, dated 2024)
Like-named read-outs stand apart in the source and are kept apart here.

Target: CRBN protein (Homo sapiens, UniProt Q96SW2)
Assay: Binding activity to E3 ubiquitin ligase CRBN (HTRF competitive binding kit, Thalidomide-Red)
Description: Binding activity of the E3 ligase inhibitor disclosed in the present invention to E3 ubiquitin ligase CRBN
CRBN binding activity test kit (CEREBLON BINDING KITS (PE, 64BD CRBN PEG).
The detection is based on homogeneous time-resolved fluorescence (HTRF) technology.
This kit uses a europium-labeled GST antibody (GST Eu Cryptate Antibody) as the donor and XL665-labeled thalidomide (Thalidomide-Red reagent) as the receptor. The donor binds to the GST-tagged CRBN protein.
The donor and receptor were each diluted 50-fold using the buffer provided in the kit (PROTAC binding buffer 1). The CRBN protein was diluted 45-fold. An 8mM solution of the compound disclosed herein was diluted 10-fold using the diluent provided in the kit (1X diluent), followed by 7 successive 5-fold serial dilutions of the resulting solution.
The ratio of the acceptor and donor emission signals was calculated for each individual well.
IC50 values was calculated based on compound concentration, Ratio, and coefficient of variation using GraphPad Prism.

[1] = competition with XL665-labeled thalidomide for GST-tagged CRBN protein, HTRF, 3 hours at room temperature, read-out: IC50

IC50 [1] [µM] | Molecule | IC50 [µM] | other results
0.65 | O=C1CCC(N2Cc3c(ccc4c3OCC43CCC4(CC3)CNC4)C2=O)C(=O)N1 (stereo not drawn) [Compound D9, 3-(6''-oxo-6''-,8''-dihydro-2''-H,7''-H-dipyrazolo[azetidin-3,1'-cyclohexane-4'-, 3"-furan[2,3-e]isoindole]-7"-yl)piperidine-2,6-dione] | – | –
21.1 | O=C1CCC(Nc2ccc3c(c2)N2CCNC[C@@H]2CCO3)C(=O)N1 (stereo partly drawn) [Compound C11, 3-(((S)-2,3,4,4a,5,6-Hexahydro-1H-benzo[b]pyrazine[1,2-d][1,4]oxacyclopropane-10-yl)amino)piperidine-2,6-dione] | – | –
0.4 | Cn1c(=O)n(C2CCC(=O)NC2=O)c2ccc3c(c21)OC[C@H]1CNCCN31 (stereo partly drawn) [Compound D7] | – | –
16.4 | O=C1CCC(Nc2ccc3c(c2)CC2(CCNCC2)O3)C(=O)N1 (stereo not drawn) [Compound C8, 3-((3H-spiro[benzofuran-2,4'-piperidine]-5-yl)amino)piperidine-2,6-dione] | – | –
1.85 | CN(c1ccc2c(c1)COC[C@H]1CNCCN21)C1CCC(=O)NC1=O (stereo partly drawn) [Compound C14] | – | –
12.8 | O=C1CCC(Nc2ccc3c(c2)N2CCNC[C@@H]2CO3)C(=O)N1 (stereo partly drawn) [Compound C9, 3-(((R)-1,2,3,4,4a,5-Hexahydrobenzo[b]pyrazine[1,2-d][1,4]oxazine-9-yl)amino)piperidine-2,6-dione] | – | –
0.72 | CN(c1ccc2c(c1)OCC21CCNCC1)C1CCC(=O)NC1=O (stereo not drawn) [Compound C15, 3-(Methyl(2H-spiro[benzofuran-3,4'-piperidine]-6-yl)amino)piperidine-2,6-dione] | – | –
10.2 | O=C1CCC(Nc2ccc3c(c2)OC2(CC3)CNC2)C(=O)N1 (stereo not drawn) [Compound C7, 3-(Spiro[azetidin-3,2'-chroman]-7'-ylamino)piperidine-2,6-dione] | – | –
2.16 | O=C1CCC(Nc2ccc3c(c2)OC[C@@H]2CNCCN32)C(=O)N1 (stereo partly drawn) [Compound C16, 3-(((S)-1,2,3,4,4a,5-hexahydrobenzo[b]pyrazine[1,2-d][1,4]oxazine-8-yl)amino)piperidine-2,6-dione] | – | –
0.028 | Cn1c(=O)n(C2CCC(=O)NC2=O)c2ccc3c(c21)OCC31CCNCC1 (stereo not drawn) [Compound D2, 3-(1-Methyl-2-oxo-1,2-dihydro-3H,7H-spiro[benzofuro[6,7-d]imidazole-6,4'-piperidine]-3-yl)piperidine-2,6-dione] | – | –
8.39 | O=C1CCC(Nc2ccc3c(c2)COC[C@H]2CNCCN32)C(=O)N1 (stereo partly drawn) [Compound C13] | – | –
5.46 | O=C1CCC(Nc2ccc3c(c2)OCC[C@H]2CNCCN32)C(=O)N1 (stereo partly drawn) [Compound C12] | – | –
0.21 | O=C1CCC(n2c(=O)n3c4c(cccc42)NCC3)C(=O)N1 (stereo not drawn) [Compound D3, 3-(2-oxo-5,6-dihydro-4H-imidazo[1,5,4-de]quinoxalin-1(2H)-yl)piperidine-2,6-dione] | – | –
90.5 | O=C1CCC(Nc2ccc3c(c2)C2(CCNCC2)CO3)C(=O)N1 (stereo not drawn) [Compound C2, 3-((2H-spiro[benzofuran-3,4'-piperidine]-5-yl)amino)piperidine-2,6-dione] | – | –

Further lines, the molecule ahead of its results:

Molecule | IC50 [1] [µM] | IC50 [µM] | other results
COc1cc2c(cc1C(=O)N[C@H]1CCC(=O)NC1=O)OCC[C@H]1CNCCN21 [Compound B9, (S)-N-((S)-2,6-Dioxopiperidin-3-yl)-10-methoxy-2,3,4,4a,5,6-hexahydro-1H-benzo[b]pyrazine[1,2-d][1,4]oxazepine-9-carboxamide] | – | 13 | –
COc1c(C(=O)N[C@H]2CCC(=O)NC2=O)ccc2c1OC[C@H]1CNCCN21 [Compound B6, (R)-N-((S)-2,6-Dioxyhesperidin-3-yl)-7-methoxy-1,2,3,4,4a,5-hexahydrobenzo[b]pyrazino[1,2-d][1,4]oxazine-8-carboxamide] | – | 49.1 | –
(R) -N-((S)-2,6-Dioxyhesperidin-3-yl)-9-methoxy-6-methyl-2,3,4,4a,5,6-hexahydro-1H-pyrazino[1,2-a]quinoline-8-carboxamide [Compound B12] | 37.3 | – | –
O=C1CC[C@H](NC(=O)c2ccc3c(c2F)OC[C@H]2CNCCN32)C(=O)N1 [Compound B5, (R)-N-((S)-2,6-Dioxyhesperidin-3-yl)-7-fluoro-1,2,3,4,4,4a,5-hexahydrobenzo[b]pyrazino[1,2-d][1,4]oxazine-8-carboxamide] | – | 60 | –
O=C1CC[C@H](NC(=O)c2c(F)ccc3c2OCC32CCNCC2)C(=O)N1 [Compound A2, (S)-N-(2,6-dioxopiperidin-3-yl)-6-fluoro-2H-spiro[benzofuran-3,4'-piperidine]-7-carboxamide] | 11.9 | – | –
O=C1CC[C@H](NC(=O)c2ccc3c(c2F)OCC32CCNCC2)C(=O)N1 [Compound A1, (S)-N-(2,6-dioxopiperidin-3-yl)-7-fluoro-2H-spiro[benzofuran-3,4'-piperidine]-6-carboxamide] | 15.5 | – | –
O=C1CC[C@H](NC(=O)c2cc3c(cc2F)C2(CCNCC2)CO3)C(=O)N1 [Compound A4, (S)-N-(2,6-dioxopiperidin-3-yl)-5-fluoro-2H-spiro[benzofuran-3,4'-piperidine]-6-carboxamide] | 23.5 | – | –
O=C1CC[C@H](NC(=O)c2ccc3c(c2)OC[C@@H]2CNCCN32)C(=O)N1 [Compound B1] | – | 40.3 | –
O=C1CCC(Nc2ccc3c(c2)OC2(CCNCC2)CC3)C(=O)N1 (stereo not drawn) [Compound C4, 3-(Spiro[2,4'-piperidino]-7-ylamino)piperidine-2,6-dione] | – | – | IC50 (competition with XL665-labeled thalidomide for GST-tagged CRBN protein, HTRF, 3 hours at room temperature): 10.1 µM
COc1cc2c(cc1C(=O)N[C@H]1CCC(=O)NC1=O)C1(CCNCC1)CO2 [Compound A9, (S)-N-(2,6-dioxopiperidin-3-yl)-6-methoxy-2H-spiro[benzofuran-3,4'-piperidine]-5-carboxamide] | 29.1 | – | –
Cn1c(=O)n(C2CCC(=O)NC2=O)c2ccc3c(c21)C1(CCNCC1)CO3 (stereo not drawn) [Compound D4, 3-(1-Methyl-2-oxo-1,2-dihydro-3H,7H-spiro[benzofuran[4,5-d]imidazole-8,4'-piperidine]-3-yl)piperidine-2,6-dione] | – | 2.3 | –
O=C1CC[C@H](NC(=O)c2cc3c(cc2F)N2CCNC[C@@H]2CO3)C(=O)N1 [Compound B3, (R)-N-((S)-2,6-dioxyhesperidin-3-yl)-9-fluoro-1,2,3,4,4,4a,5-hexahydrobenzo[b]pyrazino[1,2-d][1,4]oxazine-8-carboxamide] | 45.1 | – | –
O=C1CC[C@H](NC(=O)c2cc3c(cc2F)CCC2(CCNCC2)O3)C(=O)N1 [Compound A6, (S)-N-(2,6-dioxopiperidin-3-yl)-6-fluorospiro[chroman-2,4'-piperidine]-7-carboxamide] | 35.3 | – | –
Cn1c(=O)n(C2CCC(=O)NC2=O)c2cc3c(cc21)OC1(CCNCC1)CC3 (stereo not drawn) [Compound D5] | – | 0.66 | –
O=C1CC[C@H](NC(=O)c2cc3c(cc2F)CCC2(CNC2)O3)C(=O)N1 [Compound A7, (S)-N-(2,6-dioxopiperidin-3-yl)-6-fluoro-spiroazetidine-3,2-dihydropyridine-7-carboxamide] | – | 27.4 | –
COc1cc2c(cc1C(=O)N[C@H]1CCC(=O)NC1=O)OCC21CCNCC1 [Compound A10, (S)-N-(2,6-dioxohesperidin-3-yl)-5-methoxy-2H-spiro[benzofuran-3,4'-piperidine]-6-carboxamide] | – | 24.5 | –
COc1cc2c(cc1C(=O)N[C@H]1CCC(=O)NC1=O)OC[C@H]1CNCCN21 [Compound B4, (R)-N-((S)-2,6-Dioxyhesperidin-3-yl)-O-9-methoxy-1,2,3,4,4a,5-hexahydrobenzo[b]pyrazino[1,2-d][1,4]oxazine-8-carboxamide] | – | 10.9 | –
COc1cc2c(cc1C(=O)N[C@H]1CCC(=O)NC1=O)COC[C@H]1CNCCN21 [Compound B10, (R)-N-((S)-2,6-Dioxopiperidin-3-yl)-10-methoxy-1,2,3,4,4a,5-hexahydro-7H-benzo[e]pyrazino[2,1-c][1,4]oxacyclopropane-9-amide] | – | 22.4 | –
O=C1CC[C@H](NC(=O)c2ccc3c(c2)OCC[C@H]2CNCCN32)C(=O)N1 [Compound B11, (S)-N-((S)-2,6-Dioxopiperidin-3-yl)-2,3,4,4a,5,6-hexahydro-1H-benzo[b]pyrazino[1,2-d][1,4]oxazepine-9-carboxamide] | 54.8 | – | –
O=C1CC[C@H](NC(=O)c2ccc3c(c2)OC[C@H]2CNCCN32)C(=O)N1 [Compound B2] | 60.2 | – | –
O=C1CC[C@H](NC(=O)c2cc3c(cc2F)N2CCNC[C@H]2CO3)C(=O)N1 [Compound B8, (S)-N-((S)-2,6-Dioxyhesperidin-3-yl)-9-fluoro-1,2,3,4,4,4a,5-hexahydrobenzo[b]pyrazino[1,2-d][1,4]oxazine-8-carboxamide] | 27 | – | –
O=C1CCC(N2Cc3c(ccc4c3OCC43CCC4(CCNCC4)CC3)C2=O)C(=O)N1 (stereo not drawn) [Compound D8] | – | 0.56 | –
